Target: T1, cathepsin K (Homo sapiens, UniProt P43235)
T1 construct: the active enzyme was obtained as the enzyme fraction by using detergent containing lysis buffer; made in house; host or cells: HEK293T (GenHunter Corporation), transient expression; detergent lysate used as enzyme fraction
T1 sequence (P43235 115-329): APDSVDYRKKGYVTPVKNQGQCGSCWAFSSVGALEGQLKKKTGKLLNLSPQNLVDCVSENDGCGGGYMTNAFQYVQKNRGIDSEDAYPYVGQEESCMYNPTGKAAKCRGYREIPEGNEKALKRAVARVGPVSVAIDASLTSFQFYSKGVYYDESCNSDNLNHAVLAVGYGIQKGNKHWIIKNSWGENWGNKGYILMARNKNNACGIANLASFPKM
Test: Cathepsin K inhibitory activity (fluorescent substrate Z-Leu-Arg-MCA)
Type: biochemical
Conditions: enzyme expressed in HEK293T; 15 min preincubation, 30 min reaction at room temperature, pH 5.5; read-out: Activity Intensity (cathepsin K inhibitory activity, pIC50 class) (converted)
Description: Cathepsin K inhibitory activities of the compounds synthesized according to the methods of the above examples were measured.
Cathepsin K used for evaluation of inhibitory activity was transiently expressed in an animal cell HEK293T (made by GenHunter Corporation) and the active enzyme was obtained as the enzyme fraction by using detergent containing lysis buffer.
The enzyme solution A was prepared at 2.1 times final concentration by diluting the enzyme fraction with assay buffer (50 mM sodium acetate, 50 mM sodium chloride, 2 mM DTT, pH 5.5). The test compound solutions B were prepared at 50 times final target concentrations by dimethylsulfoxide (DMSO). As a substrate solution C, a solution of a fluorescent substrate, benzyloxycarbonyl-L-leucyl-L-arginyl-4-methyl-coumaryl-7-amide (Z-Leu-Arg-MCA (Peptide Institute Inc.), was prepared at 10 μM by an assay buffer.
To the enzyme solution A (38.4 μL) were added the test compound solutions B (1.6 μL) and mixed individually. The mixtures were incubated at room temperature for 15 minutes. To the incubated solutions were added the substrate solution C (40 μL) and the mixtures were reacted at room temperature for 30 minutes respectively. The fluorescence intensities of the enzyme reaction solutions were measured at excitation wavelength of 355 nm and measurement wavelength of 460 nm and the enzyme activities were calculated from these fluorescence intensities caused by 7-amino-4-methylcoumarine released. The enzyme activity with using DMSO instead of the test compound solution B was taken as 100% and the inhibitory rates at each concentration of the test compound were calculated. The […] response curve was fitted to the plots. The 50% inhibitory concentration against cathepsin K was calculated from this curve.
Note that the symbols (+, ++, and +++) in this table represent the inhibitory activity values as below. Here, pIC50 is the value representing a negative logarithm of IC50, (−log10(IC50)). IC50 is a 50% inhibitory concentration.

Row | SMILES | IC50 [nM]
1 | CC[C@@H](CNc1ccc(OC)cc1OC)NC(=O)[C@H](CC(C)C)N[C@@H](c1ccc(OC)cc1)C(F)(F)F [Compound 95] | ≤ 3.16
2 | CC[C@@H](CNc1ccc(OCc2ccccc2)cc1)NC(=O)[C@H](CC(C)C)N[C@@H](c1ccccc1)C(F)(F)F [Compound 96] | 3.16 to 31.6
3 | CC[C@@H](CNc1ccc(OCc2ccccc2)cc1)NC(=O)[C@H](CC(C)C)N[C@@H](c1ccc(OC)cc1)C(F)(F)F [Compound 97] | 3.16 to 31.6
4 | CC[C@@H](CNc1ccc2c(c1)OCO2)NC(=O)[C@H](CC(C)C)N[C@@H](c1ccccc1)C(F)(F)F [Compound 99] | 31.6 to 10000
5 | CC[C@@H](CNc1ccc2c(c1)OCO2)NC(=O)[C@H](CC(C)C)N[C@@H](c1ccc(OC)cc1)C(F)(F)F [Compound 100] | 31.6 to 10000
6 | CC(C)C[C@H](N[C@@H](c1ccccc1)C(F)(F)F)C(=O)N[C@@H](CCCCNC(=O)OCc1ccccc1)CNc1ccc(N2CCOCC2)cc1 [Compound 102] | ≤ 3.16
7 | CC(C)C[C@H](N[C@@H](c1ccccc1)C(F)(F)F)C(=O)N[C@@H](CCCNC(=O)OCc1ccccc1)CNc1ccc(N2CCOCC2)cc1 [Compound 103] | ≤ 3.16
8 | CC(C)C[C@H](N[C@@H](c1ccccc1)C(F)(F)F)C(=O)N[C@@H](CNC(=O)OCc1ccccc1)CNc1ccc(N2CCOCC2)cc1 [Compound 104] | ≤ 3.16
9 | CC(C)C[C@H](N[C@@H](c1ccccc1)C(F)(F)F)C(=O)N[C@@H](CCNC(=O)OCc1ccccc1)CNc1ccc(N2CCOCC2)cc1 [Compound 105] | ≤ 3.16
10 | CC(C)C[C@H](N[C@@H](c1ccccc1)C(F)(F)F)C(=O)N[C@H](CNc1ccc(N2CCOCC2)cc1)CN(C)C [Compound 106] | ≤ 3.16
11 | CC[C@@H](CNc1ccc(N2CCC(O)CC2)cc1)NC(=O)[C@H](CC(C)C)N[C@@H](c1ccccc1)C(F)(F)F [Compound 108] | ≤ 3.16
12 | CCOC(=O)C1(C(C)C)CCN(c2ccc(NC[C@H](CC)NC(=O)[C@H](CC(C)C)N[C@@H](c3ccccc3)C(F)(F)F)cc2)CC1 [Compound 109] | ≤ 3.16
13 | COc1ccc(NC[C@H](C)NC(=O)C2(NC(c3ccccc3)C(F)(F)F)CCCCC2)c(OC)c1 (stereo partly drawn) [Compound 110] | 31.6 to 10000
14 | CCOC(=O)C(F)(F)Oc1ccc(NC[C@H](CC)NC(=O)[C@H](CC(C)(C)F)N[C@@H](c2ccccc2)C(F)(F)F)c(OC)c1 [Compound 111] | 31.6 to 10000
15 | CC[C@@H](CNc1ccc(-n2ccnc2)cc1)NC(=O)[C@H](CC(C)C)N[C@@H](c1ccccc1)C(F)(F)F [Compound 112] | 31.6 to 10000
16 | CC[C@@H](CNc1ccc(-n2ccnc2)cc1)NC(=O)[C@H](CC(C)C)N[C@@H](c1ccc(OC)nc1)C(F)(F)F [Compound 113] | 31.6 to 10000
17 | CCOC(=O)c1ccnn1-c1ccc(NC[C@H](CC)NC(=O)[C@H](CC(C)C)N[C@@H](c2ccccc2)C(F)(F)F)cc1 [Compound 114] | 31.6 to 10000
18 | CCOC(=O)c1ccnn1-c1ccc(NC[C@H](CC)NC(=O)[C@H](CC(C)C)N[C@@H](c2ccc(OC)nc2)C(F)(F)F)cc1 [Compound 115] | 31.6 to 10000
19 | CC[C@H](N[C@@H](CC(C)C)C(=O)N[C@@H](CCS(C)(=O)=O)CNc1ccc(OC)cc1OC)C(F)(F)F [Compound 116] | 31.6 to 10000
20 | CC[C@@H](CNc1ccc(OCC(=O)O)cc1OC)NC(=O)[C@H](CC(C)C)N[C@@H](c1ccccc1)C(F)(F)F [Compound 119] | ≤ 3.16

Row | SMILES | IC50 [nM]
21 | CC[C@@H](CNc1ccc(OCC(=O)O)cc1OC)NC(=O)[C@H](CC(C)C)N[C@@H](c1ccc(=O)[nH]c1)C(F)(F)F [Compound 123] | 3.16 to 31.6
22 | CC(C)C[C@H](N[C@@H](c1ccccc1)C(F)(F)F)C(=O)N[C@@H](CCCO)CNc1ccc(N2CCOCC2)cc1 [Compound 125] | 31.6 to 10000
23 | CC(C)C[C@H](N[C@@H](c1ccccc1)C(F)(F)F)C(=O)N[C@@H](CN)CNc1ccc(N2CCOCC2)cc1 [Compound 128] | 3.16 to 31.6
24 | CC[C@@H](CNc1ccc(OC(C)(C)C(=O)O)cc1OC)NC(=O)[C@H](CC(C)(C)F)N[C@@H](Cc1ccccc1)C(F)(F)F [Compound 132, 2-(4-{[(2S)-2-((2S)-2-{[(1S)-2,2,2-trifluoro-1-benzylethyl]amino}-4-fluoro-4-methylpentanoylamino)butyl]amino}-3-methoxyphenoxy)-2-methylpropanoic acid] | 3.16 to 31.6
25 | CC[C@@H](CNc1ccc(OCC(N)=O)cc1OC)NC(=O)[C@H](CC(C)(C)F)N[C@@H](c1ccccc1)C(F)(F)F [Compound 133, (2S)—N-[(1S)-1-({[4-(carbamoylmethoxy)-2-methoxyphenyl]amino}methyl)propyl]-2-[((1S)-2,2,2-trifluoro-1-phenylethyl)amino]-4-fluoro-4-methylpentanamide] | ≤ 3.16
26 | CC[C@@H](CNc1ccc(OCC(=O)N(C)C)cc1OC)NC(=O)[C@H](CC(C)(C)F)N[C@@H](c1ccccc1)C(F)(F)F [Compound 134] | ≤ 3.16
27 | CC[C@@H](CNc1ccc(OCC(=O)N2CCCC2)cc1OC)NC(=O)[C@H](CC(C)(C)F)N[C@@H](c1ccccc1)C(F)(F)F [Compound 135] | ≤ 3.16
28 | CC[C@@H](CNc1ccc(OCC(=O)N2CCOCC2)cc1OC)NC(=O)[C@H](CC(C)(C)F)N[C@@H](c1ccccc1)C(F)(F)F [Compound 136] | ≤ 3.16
29 | CC[C@@H](CNc1ccc(OCC(=O)NCCO)cc1OC)NC(=O)[C@H](CC(C)(C)F)N[C@@H](c1ccccc1)C(F)(F)F [Compound 137] | ≤ 3.16
30 | CC[C@@H](CNc1ccc(OCC[S+](C)[O-])cc1OC)NC(=O)[C@H](CC(C)(C)F)N[C@@H](c1ccc(Br)cc1)C(F)(F)F (stereo partly drawn) [Compound 138-1, (2S)-2-{[(1S)-1-(4-bromophenyl)-2,2,2-trifluoroethyl]amino}-N-{(1S)-1-[({2-methoxy-4-[2-(methylsulfinyl)ethoxy]phenyl}amino)methyl]propyl}-4-fluoro-4-methylpentanamide] | ≤ 3.16
31 | CC[C@@H](CNc1ccc(OCCS(C)(=O)=O)cc1OC)NC(=O)[C@H](CC(C)(C)F)N[C@@H](c1ccc(Br)cc1)C(F)(F)F [Compound 138-2, (2S)-2-{[(1S)-1-(4-bromophenyl)-2,2,2-trifluoroethyl]amino}-N-{(1S)-1-[({2-methoxy-4-[2-(methylsulfonyl)ethoxy]phenyl}amino)methyl]propyl}-4-fluoro-4-methylpentanamide] | ≤ 3.16
32 | COc1ccc(NC[C@H](CC[S+](C)[O-])NC(=O)[C@H](CC(C)C)N[C@@H](c2ccccc2)C(F)(F)F)c(OC)c1 (stereo partly drawn) [Compound 139, (2S)—N-((1S)-1-{[(2,4-dimethoxyphenyl)amino]methyl}-3-(methylsulfinyl)propyl)-2-[((1S)-2,2,2-trifluoro-1-phenylethyl)amino]-4-methylpentanamide] | 31.6 to 10000
33 | CC[C@@H](CNc1ccc(-n2nccc2C(=O)O)cc1)NC(=O)[C@H](CC(C)C)N[C@@H](c1ccccc1)C(F)(F)F [Compound 143] | 31.6 to 10000
34 | CC[C@@H](CNc1ccc(-n2nccc2C(=O)O)cc1)NC(=O)[C@H](CC(C)C)N[C@@H](c1ccc(OC)nc1)C(F)(F)F [Compound 144] | 31.6 to 10000
35 | CC[C@@H](CNc1ccc(N2CCC(C(=O)O)CC2)cc1)NC(=O)[C@H](CC(C)C)N[C@@H](c1ccc(OC)nc1)C(F)(F)F [Compound 146] | ≤ 3.16
36 | CC[C@@H](CNc1ccc(OCCCCC(=O)O)cc1OC)NC(=O)[C@H](CC(C)C)N[C@@H](c1ccccc1)C(F)(F)F [Compound 156] | ≤ 3.16
37 | CC[C@@H](CNc1ccc(OC)cc1OC)NC(=O)[C@H](CC(C)C)N[C@@H](c1ccc(O)cc1)C(F)(F)F [Compound 157, (2S)—N-((1S)-1-{[(2,4-dimethoxyphenyl)amino]methyl}propyl)-2-{[(1S)-2,2,2-trifluoro-1-(4-hydroxyphenyl)ethyl]amino}-4-methylpentanamide] | 3.16 to 31.6
38 | CC[C@@H](CNc1ccc(N2CCOCC2)cc1)NC(=O)[C@H](CC(C)C)N[C@@H](c1ccc(O)cc1)C(F)(F)F [Compound 158, (2S)—N-((1S)-1-{[(4-morpholin-4-ylphenyl)amino]methyl}propyl)-2-{[(1S)-2,2,2-trifluoro-1-(4-hydroxyphenyl)ethyl]amino}-4-methylpentanamide] | ≤ 3.16
39 | CC[C@@H](CNc1ccc(OCC#N)cc1OC)NC(=O)[C@H](CC(C)(C)F)N[C@@H](c1ccccc1)C(F)(F)F [Compound 161, (2S)—N-[(1S)-1-({[4-(cyanomethoxy)-2-methoxyphenyl]amino}methyl)propyl]-2-[((1S)-2,2,2-trifluoro-1-phenylethyl)amino]-4-fluoro-4-methylpentanamide] | ≤ 3.16
